Experimental data taken from the NIST ThermoML archive (doi:10.1016/j.fluid.2005.06.010).

Experiment: xn = mol fraction of the nth substance listed
Conditions: Fluid (supercritical or subcritical phases), Vibrating tube method

c1ccc2ccccc2c1 [naphthalene] + O=C=O
Conditions	mass density [kg/m3]
318.03 K, 16010 kPa, x1 = 0.0198	802.31
318.03 K, 16995 kPa, x1 = 0.0198	813.73
318.03 K, 17979 kPa, x1 = 0.0198	824.06
318.03 K, 18989 kPa, x1 = 0.0198	833.74
318.03 K, 20016 kPa, x1 = 0.0198	842.78
318.03 K, 20955 kPa, x1 = 0.0198	850.43
318.03 K, 21951 kPa, x1 = 0.0198	858.04
318.03 K, 22703 kPa, x1 = 0.0198	863.41
318.07 K, 18008 kPa, x1 = 0.0235	829.61
318.07 K, 18511 kPa, x1 = 0.0235	834.41
318.07 K, 19022 kPa, x1 = 0.0235	839.2
318.07 K, 19528 kPa, x1 = 0.0235	843.76
318.07 K, 20035 kPa, x1 = 0.0235	848.15
318.07 K, 20519 kPa, x1 = 0.0235	852.18
318.07 K, 21009 kPa, x1 = 0.0235	856.16
318.07 K, 22034 kPa, x1 = 0.0235	864
318.07 K, 23008 kPa, x1 = 0.0235	870.96
318.07 K, 23971 kPa, x1 = 0.0235	877.49
318.07 K, 24665 kPa, x1 = 0.0235	882.02
318.08 K, 12165 kPa, x1 = 0.0144	719.15
318.08 K, 12357 kPa, x1 = 0.0144	724.21
318.08 K, 12493 kPa, x1 = 0.0144	727.5
318.08 K, 13016 kPa, x1 = 0.0144	739.71
318.08 K, 13476 kPa, x1 = 0.0144	749.33
318.08 K, 14019 kPa, x1 = 0.0144	759.61
318.08 K, 14983 kPa, x1 = 0.0144	775.77
318.08 K, 14983 kPa, x1 = 0.0173	784.34
318.08 K, 15997 kPa, x1 = 0.0144	790.28
318.08 K, 16066 kPa, x1 = 0.0173	799.24
318.08 K, 16997 kPa, x1 = 0.0144	803.04
318.08 K, 16997 kPa, x1 = 0.0173	810.5
318.08 K, 17981 kPa, x1 = 0.0144	814.33
318.08 K, 18010 kPa, x1 = 0.0173	821.53
318.08 K, 18981 kPa, x1 = 0.0144	824.7
318.08 K, 19014 kPa, x1 = 0.0173	831.51
318.08 K, 20037 kPa, x1 = 0.0173	840.84
318.08 K, 20042 kPa, x1 = 0.0144	834.82
318.08 K, 20902 kPa, x1 = 0.0144	842.42
318.08 K, 20967 kPa, x1 = 0.0173	848.79
318.08 K, 21935 kPa, x1 = 0.0144	850.92
318.08 K, 22018 kPa, x1 = 0.0173	857.06
318.08 K, 22960 kPa, x1 = 0.0144	858.89
318.08 K, 22995 kPa, x1 = 0.0173	864.32
318.08 K, 23932 kPa, x1 = 0.0144	865.94
318.08 K, 23962 kPa, x1 = 0.0173	871.14
318.08 K, 24764 kPa, x1 = 0.0173	876.56
318.08 K, 24829 kPa, x1 = 0.0144	872.11
318.11 K, 9524 kPa, x1 = 0.0065	513.41
318.11 K, 9601 kPa, x1 = 0.0049	505.2
318.11 K, 9622 kPa, x1 = 0.0065	527.97
318.11 K, 9697 kPa, x1 = 0.0049	521.21
318.11 K, 9722 kPa, x1 = 0.0065	543.81
318.11 K, 9775 kPa, x1 = 0.0049	532.95
318.11 K, 9801 kPa, x1 = 0.0065	554.22
318.11 K, 9898 kPa, x1 = 0.0065	566.44
318.11 K, 9974 kPa, x1 = 0.0049	559.06
318.11 K, 9975 kPa, x1 = 0.0065	575.84
318.11 K, 10075 kPa, x1 = 0.0065	586.3
318.11 K, 10181 kPa, x1 = 0.0065	596.66
318.11 K, 10293 kPa, x1 = 0.0065	606.9
318.11 K, 10405 kPa, x1 = 0.0065	616.37
318.11 K, 10523 kPa, x1 = 0.0049	610.25
318.11 K, 10629 kPa, x1 = 0.0065	632.61
318.11 K, 10763 kPa, x1 = 0.0093	652.77
318.11 K, 10830 kPa, x1 = 0.0065	645.51
318.11 K, 10978 kPa, x1 = 0.0093	663.58
318.11 K, 10980 kPa, x1 = 0.0049	639.71
318.11 K, 11049 kPa, x1 = 0.0065	657.73
318.11 K, 11516 kPa, x1 = 0.0065	679.19
318.11 K, 11989 kPa, x1 = 0.0093	702.27
318.11 K, 12007 kPa, x1 = 0.0049	684.72
318.11 K, 12072 kPa, x1 = 0.0065	699.49
318.11 K, 12537 kPa, x1 = 0.0065	713.68
318.11 K, 12998 kPa, x1 = 0.0093	729.76
318.11 K, 13017 kPa, x1 = 0.0065	726.51
318.11 K, 13024 kPa, x1 = 0.0049	715.37
318.11 K, 13986 kPa, x1 = 0.0049	737.86
318.11 K, 14066 kPa, x1 = 0.0093	752.41
318.11 K, 14069 kPa, x1 = 0.0065	749.53
318.11 K, 14967 kPa, x1 = 0.0093	768.35
318.11 K, 14970 kPa, x1 = 0.0049	756.77
318.11 K, 15010 kPa, x1 = 0.0065	766.43
318.11 K, 15879 kPa, x1 = 0.0065	779.94
318.11 K, 15977 kPa, x1 = 0.0049	773.28
